Experimental data as given in patent US20120058206A1, “ANTIALLERGIC MARINE BIOPOLYMERS” (MARINOMED BIOTECHNOLOGIE GMBH, priority 2008, published 2012).

Tested on: CFTL12 Mast cells stimulated with IgE/antigen complex (TNF-alpha release)
Assay: Inhibition of TNF-alpha production from IgE/antigen stimulated mast cells
Format: cell-based, mouse
Settings: 60 minutes before IgE/antigen stimulation; for inhibition of TNF-alpha release: carrageenan 200 μg/ml, 6 hours at 37° C., supernatant ELISA (FIG. 1)
Procedure: TNF-alpha is a mediator that is central in an inflammatory process as observed during infections, and autoimmune diseases. It is released by white blood cells, mast cells, endothelium and several other tissues in the course of damage.
CFTL12 Mast cells were incubated with iota or kappa carrageenan at a concentration of 200 μg/ml. 60 minutes later the cells were stimulated with an IgE/antigen complex. Cells were incubated at 37° C. for 6 hours and TNF-alpha in the supernatant was determined by a commercial mouse TNF-alpha ELISA (Bender-Med-Systems). Error bars indicate the standard deviation between 4 independent wells. 1=non-stimulated; 2=IgE/antigen stimulation; 3=lambda carrageenan pretretament+subsequent IgE/antigen stimulation; 4=kappa carrageenan pretreatment++subsequent IgE/antigen stimulation, 5=iota-carrageenan pretreatment+subsequent IgE/antigen stimulation. The Y-axis mirrors the concentration of TNF-alpha in pg/ml.
Mast cells were incubated with iota-carrageenan at varying concentrations. 60 minutes later the cells were stimulated with IgE/antigen complex. Cells were incubated at 37° C. for 6 hours and TNF-alpha in the supernatant was determined by a commercial mouse TNF-alpha ELISA (Bender-Med-Systems). Error bars indicate the standard deviation between 4 independent wells. 1=non-stimulated; 2=IgE/antigen stimulated, 3=iota-carrageenan 200 μg/ml, 4=iota-carrageenan 66 μg/ml, 5=iota-carrageenan 6.6 μg/ml, 6=iota-carrageenan 0.6 μg/ml. The Y-axis represents the concentration of TNF-alpha in pg/ml.

Row | Substance | dose dependence of inhibition of TNF-alpha production (200, 66, 6.6, 0.6 μg/ml, 6 hours (FIG. 2)) | inhibition of TNF-alpha release
1 | iota-carrageenan | Dose-Dependent Inhibition | inhibit TNF-alpha release
2 | lambda carrageenan [reference compound] | – | not
3 | kappa carrageenan | – | inhibit TNF-alpha release
